≈ marks a conversion by molar mass, not a printed value. Read-outs that look alike come from different tables or passages of the source.
Assays:
[1] = Kinetic solubility analysis; assay type: physicochemical; conditions: 1× PBS, 24.2 °C, aqueous buffer, kinetic from dmso stock; pH 7.4 PBS, 1% DMSO, 24-hour incubation at ambient temperature
Procedure, shortened: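 Compounds from 10 mM DMSO stocks were incubated in 0.1 N HCl or 1× PBS pH 7.4 (1.0% DMSO, 100 μM maximum theoretical) for 24 h at 24.2-27.5 °C, then vacuum filtered. Filtrates were quantified in μM by chemiluminescent nitrogen detection against a calibration curve, corrected for background nitrogen; values for adjacent ring-nitrogen compounds were raised ~25%.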

PBMCs = test: TFV-DP formation in peripheral blood mononuclear cells (PBMCs); assay type: in vitro ADME, human; conditions: 1 μM compound, 2 hrs at 37° C., 50% serum, activated PBMCs; average of at least two independent experiments
Description: Example 109: TFV-DP Formation in Peripheral Blood Mononuclear Cells (PBMCs)
Compounds were tested in a 96-well assay format for the level of TFV-DP loading in PBMCs in the presence of human serum. PBMCs were activated with 100 units/mL recombinant human […] and […] phytohaemagglutinin (PHA) for 36 hrs. After activation, PBMCs (2 million) were incubated with compounds (1 μM) and cell culture media with 50% serum in a 96 well plate for 2 hrs at 37° C. Cells were transferred to a 96 well deep block plate and spun down. Liquid was removed, and cells were washed 2× with 1 mL of 0.9% saline with spin downs between washes. After a final wash and liquid removal, 500 μL of MeOH+200 nM C1-ATP+200 nM [adenine-^13Cs]-tenofovir diphosphate (tetra ammonium salt) was added and thoroughly mixed with the cells. The plate was then spun down and 450 μL of sample was transferred to a new 96 well plate. Supernatants were then evaporated, reconstituted in 80 μl of 1 mM ammonium phosphate and thoroughly vortexed. Blank samples were pooled for serial dilution to construct calibration standards for TFV, TFV-DP and TFV-TP in pmol/million cells. Samples were then transferred to a short-well 96 well plate, centrifuged and injected on an LC-MS/MS for quantification. Values were reported in μM units using an intracellular volume of […].

HIV-1 (IIIB) = test: Antiviral (HIV) assay in MT-4 cells; assay type: cell-based
Description: Example 104: Antiviral (HIV) Assay in MT-4 Cells
Compounds were tested in a high-throughput 384-well assay format for their ability to inhibit the replication of HIV-1 (IIIB) in MT-4 cells. Compounds were serially diluted (1:3) in DMSO on 384-well polypropylene plates and further diluted 200-fold into complete RPMI media (10% FBS, 1% P/S) using the Biotek Micro Flow and Labcyte ECHO acoustic dispenser. Each plate contained up to 8 test compounds, with negative (no drug) and positive (5 μM AZT) controls. MT-4 cells were pre-treated with 10 μL of either RPMI (mock-infected) or a fresh 1:250 dilution of HIV-1 IIIB concentrated virus stock. Infected and uninfected MT-4 cells were further diluted in complete RPMI media and added to each plate using a Micro Flow dispenser. After 5 days incubation in a humidified and temperature-controlled incubator (37° C.), Cell Titer Glo (Promega) was added to the assay plates and chemiluminescence read using an Envision plate-reader. EC50 values were defined as the compound concentration that causes a 50% decrease in luminescence signal and were calculated using a sigmoidal dose-response model to generate curve fits and are shown in Table 1.

[2] = Cytotoxicity assay in MT-4 cells; assay type: cell-based; conditions: human, uninfected MT-4 cells, average of at least two independent experiments, read-out: MT4 CC50
Procedure, shortened: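 Uninfected MT-4 cells were incubated 5 days at 37 °C with 1:3 serially diluted compound in RPMI (10% FBS), with 10 μM puromycin as baseline cytotoxicity. Viability was read by CellTiter-Glo luminescence. Values are concentrations giving 50% luminescence decrease, from sigmoidal dose-response fits.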

[3] = Human immunodeficiency virus 1, IIIB, MT4, 120 h, read-out: MT4 HIV EC50 (nM)

In the case of C[C@H](Cn1cnc2c(N)ncnc21)OCP(=O)(NC(C)(C)C(=O)OC1CCOCC1)NC(C)(C)C(=O)OC1CCOCC1 [Example 24, Bis(tetrahydro-2H-pyran-4-yl) 2,2′-(((((1-(6-amino-9H-purin-9-yl)propan-2-yl)oxy)methyl)phosphoryl)bis(azanediyl))(R)-bis(2-methylpropanoate)], the solubility kinetic at 24 h [1] is reported as 69 µg/mL (≈ 110 µM) and the “Average PBMC TFV-DP (μM)” value (PBMCs) is reported as “BLQ”.

C[C@H](Cn1cnc2c(N)ncnc21)OCP(=O)(NC(C)(C)C(=O)OCC1CCC(C)(C)CC1)NC(C)(C)C(=O)OCC1CCC(C)(C)CC1 [Example 13, Bis((4,4-dimethylcyclohexyl)methyl) 2,2′-(((((1-(6-amino-9H-purin-9-yl)propan-2-yl)oxy)methyl)phosphoryl)bis(azanediyl))(R)-bis(2-methylpropanoate)] gave an EC50 (HIV-1 (IIIB); Human immunodeficiency virus 1, MT4, 120 h, HIV-1 IIIB in MT-4 cells, 5 days, Cell Titer Glo, average of at least two independent experiments, read-out: MT4 HIV EC50) of 16 nM, a CC50 at 5 days [2] of 5470 nM and a solubility kinetic at 24 h [1] of under 1 µg/mL.

With CCCCCCOC(=O)C(C)(C)NP(=O)(CO[C@H](C)Cn1cnc2c(NC(=O)CC(C)(C)CC(=O)OCc3oc(=O)oc3C)ncnc21)NC(C)(C)C(=O)OCCCCCC [Example 102, Dihexyl 2,2′-(((((1-(6-(3,3-dimethyl-5-((5-methyl-2-oxo-1,3-dioxol-4-yl)methoxy)-5-oxopentanamido)-9H-purin-9-yl)propan-2-yl)oxy)methyl)phosphoryl)bis(azanediyl))(R)-bis(2-methylpropanoate)] the CC50 at 5 days [2] was 45100 nM, the solubility kinetic at 24 h [1] was 10 µg/mL (≈ 11.4 µM) and the “Average PBMC TFV-DP (μM)” value (PBMCs) was “BLQ”.

Compound CCCCCCOC(=O)C(C)(C)NP(=O)(CO[C@H](C)Cn1cnc2c(NC(=O)CCCSC(C)=O)ncnc21)NC(C)(C)C(=O)OCCCCCC [Example 97, Dihexyl 2,2′-(((((1-(6-(4-(acetylthio)butanamido)-9H-purin-9-yl)propan-2-yl)oxy)methyl)phosphoryl)bis(azanediyl))(R)-bis(2-methylpropanoate)] has an EC50 (HIV-1 (IIIB); [3]) of 13 nM, a CC50 at 5 days [2] of 10700 nM and a solubility kinetic at 24 h [1] of 13 µg/mL (≈ 16.9 µM).

C[C@H](Cn1cnc2c(N)ncnc21)OCP(=O)(NC(C)(C)C(=O)OCCc1ccccc1)NC(C)(C)C(=O)OCCc1ccccc1 [Example 103, Diphenethyl 2,2′-(((((1-(6-amino-9H-purin-9-yl)propan-2-yl)oxy)methyl)phosphoryl)bis(azanediyl))(R)-bis(2-methylpropanoate)] gave an EC50 (HIV-1 (IIIB); [3]) of over 500 nM and a CC50 at 5 days [2] of over 42500 nM.

For CC(C)CCCOC(=O)C(C)(C)NP(=O)(CO[C@H](C)Cn1cnc2c(N)ncnc21)NC(C)(C)C(=O)OCCCC(C)C [Example 67, Bis(4-methylpentyl) 2,2′-(((((1-(6-amino-9H-purin-9-yl)propan-2-yl)oxy)methyl)phosphoryl)bis(azanediyl))(R)-bis(2-methylpropanoate)], the EC50 (HIV-1 (IIIB); HIV-1 IIIB in MT-4 cells, 5 days, Cell Titer Glo, average of at least two independent experiments, read-out: MT4 HIV EC50) was 8 nM and the “Average PBMC TFV-DP” value (PBMCs) was 5.5 µM.

For C[C@H](Cn1cnc2c(N)ncnc21)OCP(=O)(NC(C)(C)C(=O)O[C@H]1CC[C@H](C(C)(C)C)CC1)NC(C)(C)C(=O)O[C@H]1CC[C@H](C(C)(C)C)CC1 [Example 12, Bis(trans-4-(tert-butyl)cyclohexyl) 2,2′-((((((R)-1-(6-amino-9H-purin-9-yl)propan-2-yl)oxy)methyl)phosphoryl)bis(azanediyl))bis(2-methylpropanoate)], the solubility kinetic at 24 h [1] was under 1 µg/mL and the “Average PBMC TFV-DP (μM)” value (PBMCs) was “BLQ”.

Work on CCCCCCOC(=O)C(C)(C)NP(=O)(CO[C@H](C)Cn1cnc2c(NC(=O)CC(C)(C)c3c(C)cc(C)cc3OC(C)=O)ncnc21)NC(C)(C)C(=O)OCCCCCC [Example 100, Dihexyl 2,2′-(((((1-(6-(3-(2-acetoxy-4,6-dimethylphenyl)-3-methylbutanamido)-9H-purin-9-yl)propan-2-yl)oxy)methyl)phosphoryl)bis(azanediyl))(R)-bis(2-methylpropanoate)] yielded an EC50 (HIV-1 (IIIB); [3]) of 22 nM.

Source: US20230303599A1, “PRODRUGS OF PHOSPHONAMIDE NUCLEOTIDE ANALOGUES AND THEIR PHARMACEUTICAL USE” (priority 2020, published 2023)
